Experimental data published in US12134620B2 (ARAXES PHARMA LLC, priority 2018, dated 2024).
Note: time not given here.

What follows are compounds tested against T1, KRAS G12C 1-169, his-tagged protein, GDP-loaded (Homo sapiens, UniProt P01116, G12C) (assay: Biochemical assay: covalent modification of KRAS G12C, analysed by mass spectrometry (RapidFire/TOF or Q-Exactive)). Conditions: Modification activity, modification percentage from MS peak intensities.
T1 construct: KRAS G12C 1-169, his-tagged protein, GDP-loaded; His tag
Assay type: binding
In short: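 Covalent adduct formation was quantified by intact-protein mass spectrometry, either TOF or C4 LC-Q Exactive Plus, as percent modified versus unmodified protein after deconvolution. Compounds at 8 or 32 μM final were incubated with 0.5 or 2 μM GDP-bound KRAS G12C(1-169)-His in Hepes/NaCl/MgCl2 buffer before acid quench.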
C=CC(=O)N1CC2(CCN(c3nc(-c4c(C)ccc5[nH]ncc45)c(C#N)c(N4CCOCC4)n3)C2)C1 [Compound I-142, 2-(2-acryloyl-2,6-diazaspiro[3.4]octan-6-yl)-4-(5-methyl-1H-indazol-4-yl)-6-morpholinopyrimidine-5-carbonitrile] was tested, and the Binding % was “+ (+ indicates binding activity greater than 0% and up to 50%)”.
In the case of C=CC(=O)N1CC2(CCN(c3ncnc(-c4cc5cn[nH]c5cc4C)c3C#N)C2)C1 [Compound I-234, 4-(2-acryloyl-2,6-diazaspiro[3.4]octan-6-yl)-6-(6-methyl-1H-indazol-5-yl)pyrimidine-5-carbonitrile], the Binding % is reported as “+ (+ indicates binding activity greater than 0% and up to 50%)”.
With C=CC(=O)N1CC2(CCN(c3nc(OC[C@@H]4CCN(C)C4)nc(-c4c(C)ccc5[nH]ncc45)c3C#N)C2)C1 [Compound I-37, 4-(2-acryloyl-2,6-diazaspiro[3.4]octan-6-yl)-6-(5-methyl-1H-indazol-4-yl)-2-(((R)-1-methylpyrrolidin-3-yl)methoxy)pyrimidine-5-carbonitrile] the Binding % was “+ (+ indicates binding activity greater than 0% and up to 50%)”.
C=CC(=O)N1CC2(CCN(c3nc(N4CCC(CN(C)C)CC4)nc(-c4c(C)ccc5[nH]ncc45)c3C#N)C2)C1 [Compound I-213, 4-(2-acryloyl-2,6-diazaspiro[3.4]octan-6-yl)-2-(4-((dimethylamino)meth-yl)piperidin-1-yl)-6-(5-methyl-1H-indazol-4-yl)pyrimidine-5-carbontrile] was tested, and the Binding % was “+++ (+++ indicates binding activity greater than 85%)”.
C=CC(=O)N1CC2(CCN(c3ncnc(-c4c(C)ccc5[nH]ncc45)c3C(N)=O)C2)C1 [Compound I-253, 4-(2-acryloyl-2,6-diazaspiro[3.4]octan-6-yl)-6-(5-methyl-1H-indazol-4-yl)pyrimidine-5-carboxamide] was tested, and the Binding % was “+ (+ indicates binding activity greater than 0% and up to 50%)”.
C=CC(=O)N1CC2(CCN(c3c(OCc4ccccn4)ncc(-c4c(C)ccc5cnn(C)c45)c3C#N)C2)C1 [Compound I-175, 3-(2-acryloyl-2,6-diazaspiro[3.4]octan-6-yl)-5-(1,6-dimethyl-1H-indazol-7-yl)-2-(pyridin-2-ylmethoxy)isonicoti-nonitrile] was tested, and the Binding % was “++ (++ indicates binding activity from 50 to 85%)”.
In the case of C=CC(=O)N1CC2(CCN(c3ncnc(Oc4ccccc4C(N)=O)c3C#N)C2)C1 [Compound I-244, 2-((6-(2-acryloyl-2,6-diazaspiro[3.4]octan-6-yl)-5-cyanopyrimidin-4-yl)oxy)benzamide], the Binding % is reported as “+ (+ indicates binding activity greater than 0% and up to 50%)”.
C=CC(=O)N1CC2(CCN(c3nc(OC[C@@H]4CCCN4C)nc(-c4cc(-c5cn[nH]c5)ccc4F)c3C#N)C2)C1 [Compound I-115, (S)-4-(2-acryloyl-2,6-diazaspiro[3.4]octan-6-yl)-6-(2-fluoro-5-(1H-pyrazol-4-yl)phenyl)-2-((1-methylpyrrolidin-2-yl)methoxy)pyrimidine-5-carbonitrile] was tested, and the Binding % was “+ (+ indicates binding activity greater than 0% and up to 50%)”.
With C=CC(=O)N1CC2(CCN(c3nc(N4CCC[C@H](CO)C4)nc(-c4c(C)ccc5[nH]ncc45)c3C#N)C2)C1 [Compound I-211, 4-(2-acryloyl-2,6-diazaspiro[3.4]octan-6-yl)-2-((S)-3-(hydroxymethyl)piperi-din-1-yl)-6-(5-methyl-1H-indazol-4-yl)pyrimidine-5-carbonitrile] the Binding % was “++ (++ indicates binding activity from 50 to 85%)”.
C=CC(=O)N1CC2(CCN(c3cnc(Oc4ccccc4)c(-c4c(C)ccc5[nH]ncc45)c3C#N)C2)C1 [Compound I-214, 5-(2-acryloyl-2,6-diazaspiro[3.4]octan-6-yl)-3-(5-methyl-1H-indazol-4-yl)-2-phenoxyisonicotinoni-trile] was tested, and the Binding % was “++ (++ indicates binding activity from 50 to 85%)”.
